biological target: recombinant human CCR5 receptor (Homo sapiens, UniProt P51681); assay: MIP-1α radioligand binding assay (scintillation proximity); details: displacement of 0.1 nM iodinated MIP-1α; membranes from Chinese hamster ovary cells expressing recombinant human CCR5; average if tested more than once
Method: The ability of compounds to inhibit the binding of MIP-1α was assessed by an in vitro radioligand binding assay. Membranes were prepared from Chinese hamster ovary cells which expressed the recombinant human CCR5 receptor. These membranes were incubated with 0.1 nM iodinated MIP-1α, scintillation proximity beads and various concentrations of the compounds of the invention in 96-well plates. The amount of iodinated MIP-1α bound to the receptor was determined by scintillation counting. Competition curves were obtained for compounds and the concentration of compound which displaced 50% of bound iodinated MIP-1α was calculated (IC50).
In Table X the results are presented as Pic50 values. A Pic50 value is the negative log (to base 10) of the IC50 result, so an IC50 of 1 μM (that is 1×10^−6M) gives a Pic50 of 6. If a compound was tested more than once then the data below is an average of the probative tests results.

recombinant human CCR5 receptor, sequence (P51681 whole entry): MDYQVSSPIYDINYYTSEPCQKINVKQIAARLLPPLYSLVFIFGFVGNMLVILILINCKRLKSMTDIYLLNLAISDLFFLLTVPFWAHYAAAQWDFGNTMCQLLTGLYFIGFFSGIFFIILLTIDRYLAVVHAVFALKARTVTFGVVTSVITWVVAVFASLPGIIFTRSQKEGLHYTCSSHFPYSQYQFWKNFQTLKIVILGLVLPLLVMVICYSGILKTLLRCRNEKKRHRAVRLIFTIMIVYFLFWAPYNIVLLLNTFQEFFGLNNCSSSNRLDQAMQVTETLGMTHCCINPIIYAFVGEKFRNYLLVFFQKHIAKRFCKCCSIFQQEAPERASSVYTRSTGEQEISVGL

Row | Compound | IC50
1 | CC1(CCS(=O)(=O)c2ccc(S(C)(=O)=O)cc2)CCN(CC[C@@H](c2cc(F)cc(F)c2)N2CCN(S(C)(=O)=O)CC2)CC1 [Table II Compound 19, 1-{(1S)-1-(3,5-difluorophenyl)-3-[4-methyl-4-(2-{[4-(methylsulfonyl)phenyl]sulfonyl}ethyl)piperidin-1-yl]propyl}-4-(methylsulfonyl)piperazine] | 2 nM
2 | CC1(CCS(=O)(=O)c2ccc(S(C)(=O)=O)cc2)CCN(CC[C@@H](c2ccccc2)N2CCN(S(C)(=O)=O)CC2)CC1 [Table II Compound 18, 1-{(1S)-3-[4-methyl-4-(2-{[4-(methylsulfonyl)phenyl]sulfonyl}ethyl)piperidin-1-yl]-11-phenylpropyl)-4-(methylsulfonyl)piperazine] | 0.631 nM
3 | CC1(CCS(=O)(=O)c2ccc(S(C)(=O)=O)cc2)CCN(CC[C@H](c2ccc(S(C)(=O)=O)cc2)c2cc(F)cc(F)c2)CC1 [Table I Compound 1, 1-{(3R)-3-(3,5-difluorophenyl)-3-[4-(methylsulfonyl)phenyl]propyl}-4-methyl-4-(2-{[4-(methylsulfonyl)phenyl]sulfonyl}ethyl)piperidine] | 0.251 nM

Continued, values first:

Row | IC50 | Compound
4 | 2 nM | CC1(CCS(=O)(=O)C2CCN(S(C)(=O)=O)CC2)CCN(CC[C@@H](c2cc(F)cc(F)c2)C2CCN(S(C)(=O)=O)CC2)CC1 [Table VIII Compound 2, 1-{(3R)-3-(3,5-difluorophenyl)-3-[1-(methylsulfonyl)piperidin-4-yl]propyl}-4-methyl-4-(2-{[1-(methylsulfonyl)piperidin-4-yl]sulfonyl}ethyl)piperidine]
5 | 5.01 nM | COc1ccc(S(=O)(=O)CCC2(C)CCN(CC[C@@H](c3cc(F)cc(F)c3)N3CCN(S(C)(=O)=O)CC3)CC2)cc1 [Table II Compound 20, 1-[(1S)-1-(3,5-difluorophenyl)-3-(4-{2-[(4-methoxyphenyl)sulfonyl]ethyl}-4-methylpiperidin-1-yl)propyl]-4-(methylsulfonyl)piperazine]
6 | 7.94 nM | CC1(CCS(=O)(=O)C2CCN(C(=O)OCc3ccccc3)CC2)CCN(CC[C@@H](c2cc(F)cc(F)c2)C2CCN(S(C)(=O)=O)CC2)CC1 [Table VIII Compound 1, benzyl 4-{[2-(1-{(3R)-3-(3,5-difluorophenyl)-3-[1-(methylsulfonyl)piperidin-4-yl]propyl}-4-methylpiperidin-4-yl)ethyl]sulfonyl}piperidine-1-carboxylate]

— patent publication US20080021038A1, “Novel Piperidine/8-Azabicyclo [3.2.1.] Octan Derivatives As Modulators Of Chemokine Receptor Ccr5” (priority 2004, published 2008)
